# Measurements reported in patent US6096930A, “Herbicidal cyclohexane-1,3-dione derivatives and their preparation process” (Korea Research Institute of Chemical Technology, priority 1994, dated 2000).
# Legend:
# Experiment in all cases: Herbicidal activity, upland test, post-emergence
# Format in all cases: in vivo
# AESIN = tested on: AESIN
# Excerpt: (§1) The sterilized sandy loam soil is filled in test pot having a surface area of 348 cm^2 for upland test conditions or 115 cm^2 for paddy test species were planted in furrows.
# (§2) The pots for the post-emergent tests were placed in a greenhouse and watered for 9~14 days, then the foliage of test plants was sprayed with a solution of the test compound in a mixture of acetone and water containing a small amount of Tween 20.
# (§3) After spraying the plants were kept for one day, then watered regularly for 14 to 21 days, and herbicidal activity data were recorded.
# (§4) The herbicidal activity data were taken visually by percent control, wherein 0 signifies no herbicidal effect and 100 signifies complete kill.
# ZEAMX = tested on: ZEAMX
# Excerpt: as §1, §2, §3, §4
# TRZAW = tested on: TRZAW
# Excerpt: as §1, §2, §3, §4
# SOLNI = tested on: SOLNI
# Excerpt: as §1, §2, §3, §4
# BROJA = tested on: BROJA
# Excerpt: as §1, §2, §3, §4
# PANDI = tested on: PANDI
# Excerpt: as §1, §2, §3, §4
# GOSHI = tested on: GOSHI
# Excerpt: as §1, §2, §3, §4
# ABUTH = tested on: ABUTH
# Excerpt: as §1, §2, §3, §4
# GLXMX = tested on: GLXMX
# Excerpt: as §1, §2, §3, §4
# SORBI = tested on: SORBI
# Excerpt: as §1, §2, §3, §4
# ORYSA = tested on: ORYSA
# Excerpt: as §1, §2, §3, §4
# DIGSA = tested on: DIGSA
# Excerpt: as §1, §2, §3, §4
compound,measurement,setting,value
CCON=C(CC)C1=C(O)CC(c2c(C)c(C)c3c(c2C)CC(C)(C)C3)CC1=O (stereo not drawn) [Compound 2],"Herbicidal activity, AESIN",AESIN; 0.004 kg/ha,0 % inhibition
same,"Herbicidal activity, AESIN",AESIN; 0.016 kg/ha,0 % inhibition
same,"Herbicidal activity, AESIN",AESIN; 0.063 kg/ha,0 % inhibition
same,"Herbicidal activity, AESIN",AESIN; 1.000 kg/ha,0 % inhibition
same,"Herbicidal activity, AESIN",AESIN; 1.250 kg/ha,0 % inhibition
same,"Herbicidal activity, ZEAMX",ZEAMX; 0.004 kg/ha,0 % inhibition
same,"Herbicidal activity, ZEAMX",ZEAMX; 0.016 kg/ha,40 % inhibition
same,"Herbicidal activity, ZEAMX",ZEAMX; 0.063 kg/ha,100 % inhibition
same,"Herbicidal activity, ZEAMX",ZEAMX; 1.000 kg/ha,100 % inhibition
same,"Herbicidal activity, ZEAMX",ZEAMX; 1.250 kg/ha,100 % inhibition
same,"Herbicidal activity, TRZAW",TRZAW; 0.004 kg/ha,0 % inhibition
same,"Herbicidal activity, TRZAW",TRZAW; 0.016 kg/ha,0 % inhibition
same,"Herbicidal activity, TRZAW",TRZAW; 0.063 kg/ha,40 % inhibition
same,"Herbicidal activity, TRZAW",TRZAW; 1.000 kg/ha,100 % inhibition
same,"Herbicidal activity, TRZAW",TRZAW; 1.250 kg/ha,100 % inhibition
same,"Herbicidal activity, SOLNI",SOLNI; 0.004 kg/ha,0 % inhibition
same,"Herbicidal activity, SOLNI",SOLNI; 0.016 kg/ha,0 % inhibition
same,"Herbicidal activity, SOLNI",SOLNI; 0.063 kg/ha,0 % inhibition
same,"Herbicidal activity, SOLNI",SOLNI; 1.000 kg/ha,0 % inhibition
same,"Herbicidal activity, SOLNI",SOLNI; 1.250 kg/ha,0 % inhibition
same,"Herbicidal activity, BROJA",BROJA; 0.004 kg/ha,0 % inhibition
same,"Herbicidal activity, BROJA",BROJA; 0.016 kg/ha,0 % inhibition
same,"Herbicidal activity, BROJA",BROJA; 0.063 kg/ha,60 % inhibition
same,"Herbicidal activity, BROJA",BROJA; 1.000 kg/ha,100 % inhibition
same,"Herbicidal activity, BROJA",BROJA; 1.250 kg/ha,100 % inhibition
same,"Herbicidal activity, PANDI",PANDI; 0.004 kg/ha,0 % inhibition
same,"Herbicidal activity, PANDI",PANDI; 0.016 kg/ha,40 % inhibition
same,"Herbicidal activity, PANDI",PANDI; 0.063 kg/ha,100 % inhibition
same,"Herbicidal activity, PANDI",PANDI; 1.000 kg/ha,100 % inhibition
same,"Herbicidal activity, PANDI",PANDI; 1.250 kg/ha,100 % inhibition
same,"Herbicidal activity, GOSHI",GOSHI; 0.004 kg/ha,0 % inhibition
same,"Herbicidal activity, GOSHI",GOSHI; 0.016 kg/ha,0 % inhibition
same,"Herbicidal activity, GOSHI",GOSHI; 0.063 kg/ha,40 % inhibition
same,"Herbicidal activity, GOSHI",GOSHI; 1.000 kg/ha,70 % inhibition
same,"Herbicidal activity, GOSHI",GOSHI; 1.250 kg/ha,50 % inhibition
same,"Herbicidal activity, ABUTH",ABUTH; 0.004 kg/ha,0 % inhibition
same,"Herbicidal activity, ABUTH",ABUTH; 0.016 kg/ha,0 % inhibition
same,"Herbicidal activity, ABUTH",ABUTH; 0.063 kg/ha,0 % inhibition
same,"Herbicidal activity, ABUTH",ABUTH; 1.000 kg/ha,0 % inhibition
same,"Herbicidal activity, ABUTH",ABUTH; 1.250 kg/ha,0 % inhibition
same,"Herbicidal activity, GLXMX",GLXMX; 0.004 kg/ha,0 % inhibition
same,"Herbicidal activity, GLXMX",GLXMX; 0.016 kg/ha,0 % inhibition
same,"Herbicidal activity, GLXMX",GLXMX; 0.063 kg/ha,30 % inhibition
same,"Herbicidal activity, GLXMX",GLXMX; 1.000 kg/ha,60 % inhibition
same,"Herbicidal activity, GLXMX",GLXMX; 1.250 kg/ha,40 % inhibition
same,"Herbicidal activity, SORBI",SORBI; 0.004 kg/ha,0 % inhibition
same,"Herbicidal activity, SORBI",SORBI; 0.016 kg/ha,0 % inhibition
same,"Herbicidal activity, SORBI",SORBI; 0.063 kg/ha,60 % inhibition
same,"Herbicidal activity, SORBI",SORBI; 1.000 kg/ha,100 % inhibition
same,"Herbicidal activity, SORBI",SORBI; 1.250 kg/ha,100 % inhibition
same,"Herbicidal activity, ORYSA",ORYSA; 0.004 kg/ha,0 % inhibition
same,"Herbicidal activity, ORYSA",ORYSA; 0.016 kg/ha,20 % inhibition
same,"Herbicidal activity, ORYSA",ORYSA; 0.063 kg/ha,40 % inhibition
same,"Herbicidal activity, ORYSA",ORYSA; 1.000 kg/ha,100 % inhibition
same,"Herbicidal activity, ORYSA",ORYSA; 1.250 kg/ha,100 % inhibition
same,"Herbicidal activity, DIGSA",DIGSA; 0.004 kg/ha,100 % inhibition
same,"Herbicidal activity, DIGSA",DIGSA; 0.016 kg/ha,100 % inhibition
